# Data: patent US20240158446A1, “CYCLIC COMPOUND HAVING SELECTIVE INHIBITORY ACTION ON KRAS OVER HRAS AND NRAS” (CHUGAI SEIYAKU KABUSHIKI KAISHA, priority 2021, published 2024)
# pKd: −log10 of the molar value.
# Assays:
# [1] = molecular target: GDP-bound KRAS wild-type protein (Homo sapiens, UniProt P01116); assay: Binding to KRAS by surface plasmon resonance (SPR), Single Cycle Kinetics; settings: SPR, Single Cycle Kinetics, GDP-bound KRAS wild-type protein; read-out: KRAS KD
# [2] = molecular target: GDP-bound NRAS wild-type protein (Homo sapiens, UniProt P01111); assay: Binding to NRAS by surface plasmon resonance (SPR), Single Cycle Kinetics; settings: SPR, GDP-bound NRAS wild-type protein vs GDP-bound KRAS wild-type protein
# Chain of GDP-bound NRAS wild-type protein (P01111 whole entry): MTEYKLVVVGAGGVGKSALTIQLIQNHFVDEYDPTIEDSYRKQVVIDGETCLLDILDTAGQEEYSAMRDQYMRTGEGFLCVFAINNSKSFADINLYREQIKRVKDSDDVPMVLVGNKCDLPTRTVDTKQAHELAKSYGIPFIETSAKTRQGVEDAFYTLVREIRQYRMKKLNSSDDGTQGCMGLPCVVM
# [3] = molecular target: GDP-bound HRAS wild-type protein (Homo sapiens, UniProt P01112); assay: Binding to HRAS by surface plasmon resonance (SPR), Single Cycle Kinetics; settings: SPR, GDP-bound HRAS wild-type protein vs GDP-bound KRAS wild-type protein
# Chain of GDP-bound HRAS wild-type protein (P01112 whole entry): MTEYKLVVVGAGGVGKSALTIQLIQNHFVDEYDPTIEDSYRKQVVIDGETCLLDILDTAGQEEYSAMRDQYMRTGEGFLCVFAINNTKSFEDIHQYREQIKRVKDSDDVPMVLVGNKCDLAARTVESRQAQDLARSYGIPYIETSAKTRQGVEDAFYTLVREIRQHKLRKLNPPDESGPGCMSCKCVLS
# Chain of GDP-bound KRAS wild-type protein (P01116 whole entry): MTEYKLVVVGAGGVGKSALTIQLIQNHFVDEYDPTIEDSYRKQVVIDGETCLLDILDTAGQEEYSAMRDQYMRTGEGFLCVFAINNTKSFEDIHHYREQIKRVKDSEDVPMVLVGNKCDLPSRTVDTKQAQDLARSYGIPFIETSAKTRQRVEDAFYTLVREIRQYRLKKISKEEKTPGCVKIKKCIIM
SMILES,pKd [1],NRAS/KRAS (ratio of KD value for NRAS to KD value for KRAS) [2],HRAS/KRAS (ratio of KD value for HRAS to KD value for KRAS) [3]
CCO[C@@H]1C[C@H]2C(=O)NC3(CCC3)C(=O)N(C)[C@@H](C3CCCC3)C(=O)N(C)[C@H](C(=O)N3CCOCC3)CC(=O)N(C)[C@@H](COC)C(=O)N[C@@H]([C@@H](C)CC)C(=O)N(C)CC(=O)N(C)[C@H]3CCCCCN(C3=O)[C@@H](Cc3ccc(C(F)(F)F)cc3)C(=O)N(C)CC(=O)N[C@@H](CCc3ccc(C)cc3)C(=O)N2C1 [PP0850],7.92,B (a compound having 3 or more and less than 10 is denoted as B),B (a compound having 3 or more and less than 10 is denoted as B)
CCO[C@@H]1C[C@H]2C(=O)NC3(CCC3)C(=O)N(C)[C@@H](C3CCCC3)C(=O)N(C)[C@H](C(=O)N3CCOCC3)CC(=O)N(C)[C@@H](CC(F)F)C(=O)N[C@@H]([C@@H](C)CC)C(=O)N(C)CC(=O)N(C)[C@H]3CCCCCN(C3=O)[C@@H](Cc3ccc(C(F)(F)F)cc3)C(=O)N(C)CC(=O)N[C@@H](CCc3cc(F)c(C(F)(F)F)c(F)c3)C(=O)N2C1 [PP0854],9.42,B (a compound having 3 or more and less than 10 is denoted as B),B (a compound having 3 or more and less than 10 is denoted as B)
CCO[C@@H]1C[C@H]2C(=O)NC3(CCC3)C(=O)N(C)[C@@H](C3CCCC3)C(=O)N(C)[C@H](C(=O)N3CCOCC3)CC(=O)N(C)[C@@H](Cc3cccc(Cl)c3)C(=O)N[C@@H]([C@@H](C)CC)C(=O)N(C)CC(=O)N(C)[C@H]3CCCCCN(C3=O)[C@@H](Cc3ccc(C(F)(F)F)cc3)C(=O)N(C)CC(=O)N[C@@H](CCc3cc(F)c(C(F)(F)F)c(F)c3)C(=O)N2C1 [PP0857],8.85,B (a compound having 3 or more and less than 10 is denoted as B),B (a compound having 3 or more and less than 10 is denoted as B)
CCO[C@@H]1C[C@H]2C(=O)NC3(CCC3)C(=O)N(C)[C@@H](C3CCCC3)C(=O)N(C)[C@H](C(=O)N3CCOCC3)CC(=O)N(C)[C@@H](COC)C(=O)N[C@@H]([C@@H](C)CC)C(=O)NCC(=O)N(C)[C@H]3CCCCCN(C3=O)[C@@H](Cc3ccc(C(F)(F)F)cc3)C(=O)N(C)CC(=O)N[C@@H](CCc3cc(F)c(C(F)(F)F)c(F)c3)C(=O)N2C1 [PP0858],9.18,B (a compound having 3 or more and less than 10 is denoted as B),B (a compound having 3 or more and less than 10 is denoted as B)
CCO[C@@H]1C[C@H]2C(=O)NC3(CCC3)C(=O)N(C)[C@@H](C3CCCC3)C(=O)N(C)[C@H](C(=O)N3CCOCC3)CC(=O)N(C)[C@@H](COC)C(=O)N[C@@H]([C@@H](C)CC)C(=O)N3CC[C@H]3C(=O)N(C)[C@H]3CCCCCN(C3=O)[C@@H](Cc3ccc(C(F)(F)F)cc3)C(=O)N(C)CC(=O)N[C@@H](CCc3cc(F)c(C(F)(F)F)c(F)c3)C(=O)N2C1 [PP0863],9.22,B (a compound having 3 or more and less than 10 is denoted as B),B (a compound having 3 or more and less than 10 is denoted as B)
CC[C@H](C)[C@@H]1NC(=O)[C@H](COC)N(C)C(=O)C[C@@H](C(=O)N2CCOCC2)N(C)C(=O)[C@H](C2CCCC2)N(C)C(=O)C2(CCC2)NC(=O)[C@@H]2CC(F)(F)CN2C(=O)[C@H](CCc2cc(F)c(C(F)(F)F)c(F)c2)NC(=O)CN(C)C(=O)[C@H](Cc2ccc(C(F)(F)F)cc2)N2CCCCC[C@@H](C2=O)N(C)C(=O)[C@@H]2CCN2C1=O [PP0866],9.28,B (a compound having 3 or more and less than 10 is denoted as B),B (a compound having 3 or more and less than 10 is denoted as B)

# The remaining molecules from weak to strong by pKd [1], led by results:
pKd [1],SMILES,NRAS/KRAS (ratio of KD value for NRAS to KD value for KRAS) [2],HRAS/KRAS (ratio of KD value for HRAS to KD value for KRAS) [3]
8.96,CC[C@H](C)[C@@H]1NC(=O)[C@H](COC)N(C)C(=O)C[C@@H](C(=O)N2CCOCC2)N(C)C(=O)[C@H](C2CCCC2)N(C)C(=O)C2(CCC2)NC(=O)[C@@H]2CCCN2C(=O)[C@H](CCc2cc(F)c(C(F)(F)F)c(F)c2)NC(=O)CN(C)C(=O)[C@H](Cc2ccc(C(F)(F)F)cc2)N2CCCCC[C@@H](C2=O)N(C)C(=O)[C@@H]2CCN2C1=O [PP0865],B (a compound having 3 or more and less than 10 is denoted as B),B (a compound having 3 or more and less than 10 is denoted as B)
9.18,CC[C@H](C)[C@@H]1NC(=O)[C@H](COC)N(C)C(=O)C[C@@H](C(=O)N2CCOCC2)N(C)C(=O)[C@H](C2CCCC2)N(C)C(=O)C2(CCC2)NC(=O)[C@@H]2CC(F)(F)CN2C(=O)[C@H](CCc2cc(F)c(C(F)(F)F)c(F)c2)NC(=O)CN(C)C(=O)[C@H](Cc2ccc(C(F)(F)F)cc2)N2CCCCC[C@@H](C2=O)N(C)C(=O)CNC1=O [PP0861],B (a compound having 3 or more and less than 10 is denoted as B),B (a compound having 3 or more and less than 10 is denoted as B)
9.24,CCO[C@@H]1C[C@H]2C(=O)NC3(CCC3)C(=O)N(C)[C@@H](C3CCCC3)C(=O)N(C)[C@H](C(=O)N3CCOCC3)CC(=O)N(C)[C@@H](COC)C(=O)N[C@@H]([C@@H](C)CC)C(=O)N(C)CC(=O)N(C)[C@H]3CCCCCN(C3=O)[C@@H](Cc3ccc(C(F)(F)F)cc3)C(=O)N(C)CC(=O)N[C@@H](CCc3ccc(C(F)(F)F)c(F)c3)C(=O)N2C1 [PP0848],B (a compound having 3 or more and less than 10 is denoted as B),B (a compound having 3 or more and less than 10 is denoted as B)
9.31,CCO[C@@H]1C[C@H]2C(=O)NC3(CCC3)C(=O)N(C)[C@@H](C3CCCC3)C(=O)N(C)[C@H](C(=O)N(C)C)CC(=O)N(C)[C@@H](COC)C(=O)N[C@@H]([C@@H](C)CC)C(=O)N3CC[C@H]3C(=O)N(C)[C@H]3CCCCCN(C3=O)[C@@H](Cc3ccc(C(F)(F)F)cc3)C(=O)N(C)CC(=O)N[C@@H](CCc3cc(F)c(C(F)(F)F)c(F)c3)C(=O)N2C1 [PP0864],B (a compound having 3 or more and less than 10 is denoted as B),B (a compound having 3 or more and less than 10 is denoted as B)
9.34,CCO[C@@H]1C[C@H]2C(=O)NC3(CCC3)C(=O)N(C)[C@@H](C3CCCC3)C(=O)N(C)[C@H](C(=O)N3CCOCC3)CC(=O)N(C)[C@@H](COC)C(=O)N[C@@H]([C@@H](C)CC)C(=O)N(C)CC(=O)N(C)[C@H]3CCCCCN(C3=O)[C@@H](Cc3ccc(C(F)(F)F)cc3)C(=O)N(C)CC(=O)N[C@@H](CCc3ccc(C(F)(F)F)c(Cl)c3)C(=O)N2C1 [PP0849],B (a compound having 3 or more and less than 10 is denoted as B),B (a compound having 3 or more and less than 10 is denoted as B)
9.51,CCO[C@@H]1C[C@H]2C(=O)NC3(CCC3)C(=O)N(C)[C@@H](C3CCCC3)C(=O)N(C)[C@H](C(=O)N(C)C)CC(=O)N(C)[C@@H](COC)C(=O)N[C@@H]([C@@H](C)CC)C(=O)NCC(=O)N(C)[C@H]3CCCCCN(C3=O)[C@@H](Cc3ccc(C(F)(F)F)cc3)C(=O)N(C)CC(=O)N[C@@H](CCc3cc(F)c(C(F)(F)F)c(F)c3)C(=O)N2C1 [PP0859],B (a compound having 3 or more and less than 10 is denoted as B),B (a compound having 3 or more and less than 10 is denoted as B)
